In assay [1] the test system is all tested cell lines. The assay can be described thus: In vitro cell viability assay, drug-linkers versus ADCs. The conditions noted are these: AF-Lx quenched with thiourea, AF-Mal with n-acetyl-cysteine. It counts as cell-based. As for the experimental part:
(§1) Before starting the assay, the AF-Lx and AF-Mal were quenched by incubation the compounds with 1 mol equiv. thiourea (2 hours, 37° C.) and n-acetyl-cysteine (30 minutes, 0° C.), respectively. The cells were trypsinized and plated in 96-well, flat-bottomed, tissue culture plates at day 0. On day 1, from the above mentioned compounds serial dilution series (9×4-fold dilutions) were made starting from 10 or 1000 nM (depending on type of cells and compounds) and added to the cells (in case of ADCs, concentration of the mAb was used). On day 5, the […] BLUE® reagent was added and incubated for 2 hours at 37° C., and viable cells were measured with a TeCan plate reader (Tecan Group Ltd.) at 560EX/590EM nm. Fluorescence values of the samples were corrected for background of cell culture medium, the results, presented as the percentage of survival, were calculated by dividing the fluorescence values of the treated cells by the values of the untreated control cells. The data were analyzed with Graphpad Prism 5 software.

In assay [2] the test system is JIMT-1 tumors. The assay can be described thus: In vivo therapy study, JIMT-1 xenografts. The conditions noted are these: single bolus injection (15 mg/kg; AF conjugates 15 and 30 mg/kg), follow-up to day 125. Further details: species or system nude mice. As for the experimental part: (§2) Body weight was measured three times per week and MTD was reached when weight loss was >10% compared with the control mice. […] For this purpose, seven groups of 8 or 9 mice with established NCI-N87 or JIMT-1 xenografts in both flanks were used. […] All mice received an i.p. bolus injection. In the study with the NCI-N87 tumors, Group 1 was the control group and received 100 μL of saline solution. […] In the study with the JIMT-1 tumors, Group 1 was the control group and received 100 μL of saline solution. […] Body weight and tumor volume were measured three times per week up to 4 months after end of treatment.

The subject of assay [3] is NCI-N87 tumors. Briefly: In vivo therapy study, NCI-N87 xenografts. More on the design: species or system nude mice. Conditions: single bolus injection 15 mg/kg. As for the experimental part:
as §2

Assay [4] relates to JIMT-1. The assay can be described thus: In vitro cell viability assay ([…] BLUE). It counts as cell-based. As for the experimental part: as §1, with “BLUE® Assay (Promega). Before” for “Before”, “Fluorescence values of the samples were corrected for background of cell culture medium, the results, presented as the percentage of survival, were calculated by dividing the fluorescence values of the treated cells by the values of the untreated control cells.” left out

The test system of assay [5] is NCI-N87. The assay can be described thus: In vitro cell viability assay ([…] BLUE). Type of assay: cell-based. The conditions noted are these: concentration of the mAb for ADCs, day 5 readout. As for the experimental part:
as §1, with “BLUE® Assay (Promega). Before” for “Before”, “Fluorescence values of the samples were corrected for background of cell culture medium, the results, presented as the percentage of survival, were calculated by dividing the fluorescence values of the treated cells by the values of the untreated control cells.” left out

Assay [6] concerns MDA-MB-231. Briefly: In vitro cell viability assay ([…] BLUE). Type of assay: cell-based. As for the experimental part:
as §1, with “BLUE® Assay (Promega). Before” for “Before”, “Fluorescence values of the samples were corrected for background of cell culture medium, the results, presented as the percentage of survival, were calculated by dividing the fluorescence values of the treated cells by the values of the untreated control cells.” left out

Assay [7] has as its system SK-BR-3. The assay can be described thus: In vitro cell viability assay ([…] BLUE). It counts as cell-based. As for the experimental part:
as §1, with “BLUE® Assay (Promega). Before” for “Before”, “Fluorescence values of the samples were corrected for background of cell culture medium, the results, presented as the percentage of survival, were calculated by dividing the fluorescence values of the treated cells by the values of the untreated control cells.” left out

Assay [8] relates to SKOV-3. Briefly: In vitro cell viability assay ([…] BLUE). Type of assay: cell-based. As for the experimental part: as §1, with “BLUE® Assay (Promega). Before” for “Before”, “Fluorescence values of the samples were corrected for background of cell culture medium, the results, presented as the percentage of survival, were calculated by dividing the fluorescence values of the treated cells by the values of the untreated control cells.” left out

Results on 3 compounds are retold here after US20190298846A1, “CELL TARGETING CONJUGATES” (LinXis B.V., priority 2016, published 2019).

One may read the pIC50 as the IC50 on a negative log10 scale, so that one unit is a factor of ten. A high value points to a small IC50.

pIC50: −log10 of the molar value. Square brackets hold non-standard residues; d marks the D form. Peptide text beside a SMILES is read from it. * marks the point of attachment. Dolaproine = CO[C@@H]([C@@H]1CCCN1)[C@@H](C)C(=O)O; Dil = CC[C@H](C)[C@H](NC)[C@@H](CC(=O)O)OC; X1 = O=C(CCCCCN1C(=O)C=CC1=O)NCCOCCOCCN*; NMe2Val = CC(C)[C@@H](C(=O)*)N(C)C

On to `CC[C@H](C)[C@@H]([C@@H](CC(=O)N1CCC[C@H]1[C@H](OC)[C@@H](C)C(=O)N[C@H](Cc1ccccc1)C(=O)NCCOCCOCCNC(=O)CCCCCN1C(=O)C=CC1=O)OC)N(C)C(=O)[C@@H](NC(=O)[C@H](C(C)C)N(C)C)C(C)C` [AF-Mal, AF-PEG1-amide-Hex-Mal] (NMe2Val-V[Dil][Dolaproine][dF]-X1), for which the “potency of drug-linker lower compared to its corresponding ADC” value in assay [1] is recorded as 10 fold.
Turning to “[Pt(en)(AF-(4-(12-amino-3-oxo-7,10-dioxa-2,4-diazadodecyl)piperidine))Cl](Cl) [AF-Lx]”, in assay [1], the “potency of drug-linker lower compared to its corresponding ADC” value is 10^3-10^4 fold.
Take ado-trastuzumab emtansine [T-DM1]: in assay [2], the “tumor growth response, in words” value is on record as “minimal growth delay”. The “time at which tumors started regrowth” value in assay [3] worked out at 20 days. Moreover, the pIC50 in assay [4] (JIMT-1, T-DM1-resistant) was 8.15; in assay [5], 9.98; in assay [6] (MDA-MB-231, HER2-negative) it was 6.70; in assay [7], 10.68; in assay [8], 10.89. The “potency / IC50 in JIMT-1 cell line, in words” value in assay [4] (T-DM1-resistant JIMT-1) was “an order of magnitude higher”. Besides, the “potency / IC50 in MDA-MB-231, in words” value in assay [6] (HER2-negative MDA-MB-231) is “lower IC50”.
